# “Also recorded” adds a separate entry of the source. Where a SMILES comes first, the peptide text is derived from it. Bridges are numbered along the chain shown (N, C = ends). [ ]: non-standard residue; d: D form. hArg = N=C(N)NCCCC[C@H](N)C(=O)O; Mpa = O=C(O)CCS
# Assays:
# [1] = tested on: platelets in platelet-rich plasma (PRP); assay: Transmission light aggregometry of platelets in PRP with antiplatelet agents; type: cell-based, human
# Protocol: Plasma samples with platelet or FDPDs or combination of both are loaded into cuvettes and placed into the aggregometry chambers. The chambers warm the sample and provide constant stirring. The initiation of aggregation can be done by multiple types of […] agents not limited to thrombin, ADP, collagen and any agent know to stimulate platelet aggregation. […] The instrument begins the assay by first recording the light transmission previous to stimulation for 2 minutes. The stimulant of interest is then introduced by the technician and the change in light transmission is recorded overtime. The increase in light transmission corresponds to increase in platelet aggregation.
# platelet rich plasma [2] = assay: T-TAS AR chip (collagen and tissue factor) occlusion, platelet rich plasma; type: cell-based, human
# platelet rich plasma [3] = assay: as above; type: cell-based, human; conditions: for occlusion time of ADP stimulated PRP: ADP 2 μM, cangrelor 1 μM (n=4) or ticagrelor 500 ng/mL (n=5)
# Protocol: The effect of cangrelor on platelet occlusion under shear was evaluated by T-TAS®.
# Evaluation by T-TAS® using an AR chip. AR chips are characterized by a single channel containing collagen and tissue factor; they can be used to analyze clotting and platelet function.
# platelet function = conditions: in vivo; cited from earlier work
# whole blood [4] = assay: T-TAS AR chip occlusion, whole blood; type: cell-based, human; conditions: 6 μM eptifibatide
# Text: The effect of FDPDs on shortening clotting times while in the presence of eptifibatide was also studied. The ability of FDPDs to recover occlusion times was studied on the T-TAS® system. The T-TAS® system measures occlusion time under shear forces with collagen and thromboplastin stimulation. The whole blood profile of occlusion and AUC on the AR T-TAS® chip lengthened and decreased, respectively, with eptifibatide. Eptifibatide extended the occlusion time of whole blood on the T-TAS® AR Chip in a dose-dependent manner. In this experiment, whole blood occluded at 8 minutes, and the occlusion time was extended to 16 minutes with 6 μM eptifibatide (FIG. 9). FDPDs reversed the inhibitory effect of eptifibatide on thrombus formation. Eptifibatide inhibition of whole blood occlusion on the T-TAS® AR Chip was reversed by the addition of FDPDs at approximately 200,000/μL (N=3). When FDPDs (approximately 200 k/μL) were added to the sample of whole blood inhibited with eptifibatide, the time to occlusion decreased to ‘normal’ at 9 minutes (FIG. 10).
# Evaluation by T-TAS® using an AR chip. […]
# Occlusion time was measured on the Total […] formation Analysis System (T-TAS®) 01 using AR chips (Collagen and Tissue FactorF stimulant). […] FDPDS were rehydrated, counted (Beckman Coulter AcT Diff 2 Cell Counter), and added to whole blood at the indicated final concentration. […]
# whole blood [5] = assay: T-TAS PL chip (collagen only) thrombus formation, whole blood; type: cell-based, human; conditions: 100 and 500 μM aspirin
# Text: Platelets will aggregate with collagen and arachidonic acid stimulation. […] The PL chip system on the T-TAS® was used to emulate in vitro platelet binding and aggregation due to the exposure of collagen in the vasculature under shear conditions.
# PL chips are run similarly to AR chips but this chip is only coated with collagen alone.
# thrombin generation = assay: Thrombin generation assay (TGA); type: biochemical, human; conditions: PPP from patients taking baby aspirin daily; absence of FDPDs
# [6] = same 500 mg dose orally; cited from earlier work
# pooled normal plasma = assay: Activated clotting time (ACT) in pooled normal plasma with heparin and protamine; type: biochemical, human; conditions: heparin titration
# Protocol: This experiment assessed how clinical proportions of Heparin and Protamine affect FDPD function. FDPDs were prepared according to the procedure in Example 15. An Activating Clotting Time (ACT) assay was performed to measure time to clot and TGA was performed to measure thrombin generation. An initial Heparin titration run was performed using ACT to find the minimum Heparin dose needed to reach abnormal clot time.
# Activated clotting time was measured using pooled normal plasma with heparin (H) and protamine (P) as labeled on the x-axis; ½ P, P, and 3/2 P represent protamine doses of 4, 8, and 12 μg/ml, respectively. FDPDs, (referred to as “Tsomes” in FIG. 40) were added at 10, 25 or 50 K/μl. […] “K” in the legend stands for 10^3 FDPDS. All samples were run in duplicate. N=2. The experiment was repeated on separate days to improve statistical relevance.
# [7] = cangrelor 1 μM combined with ADP 10 μM
compound,measurement,setting,value
CC(C)Cc1ccc(C(C)C(=O)O)cc1 (centres unmarked) [ibuprofen],aggregation in response to arachidonic acid,[1]; PRP from subject on 800 mg ibuprofen,lack of aggregation
same,occlusion of PRP from ibuprofen patient,platelet rich plasma [2]; addition of ADP,abolished occlusion
same,occlusion of PRP from ibuprofen patient,platelet rich plasma [2]; subject on 800 mg ibuprofen,demonstrated occlusion
CSCCNc1nc(SCCC(F)(F)F)nc2c1ncn2[C@@H]1O[C@H](COP(=O)(O)OP(=O)(O)C(Cl)(Cl)P(=O)(O)O)[C@@H](O)[C@H]1O [cangrelor],ADP-induced platelet aggregation in PRP,"[1]; 10 μM ADP, cangrelor 0.5 μM-3.5 μM",complete inhibition
same,occlusion time of PRP,platelet rich plasma [3]; 100 ng/mL cangrelor and ADP,26 min
same,occlusion time of ADP stimulated PRP,platelet rich plasma [3],28.0 ± 3.0 min
same,area under the curve (AUC) of PRP,platelet rich plasma [3]; [7],dropped close to zero
same,platelet adhesion and occlusion of PRP,platelet rich plasma [3]; [7],essentially eliminated; also recorded: inhibited occlusion essentially completely
same,area under the curve (AUC) of PRP,platelet rich plasma [3]; cangrelor alone 1 μM,little effect
same,occlusion / occlusion time of PRP,platelet rich plasma [3]; cangrelor alone 1 μM,did not exhibit inhibition; also recorded: little effect
CCCCS(=O)(=O)N[C@@H](Cc1ccc(OCCCCC2CCNCC2)cc1)C(=O)O [tirofiban],occlusion time of PRP,platelet rich plasma [2]; 100 ng/mL tirofiban,no occlusion
COC(=O)[C@H](c1ccccc1Cl)N1CCc2sccc2C1 [clopidogrel],time until platelet function is returned after stopping infusion,platelet function,approximately 1 hour
N=C(N)NCCCC[C@@H]1NC(=O)CCSSC[C@@H](C(N)=O)NC(=O)[C@@H]2CCCN2C(=O)[C@H](Cc2c[nH]c3ccccc23)NC(=O)[C@H](CC(=O)O)NC(=O)CNC1=O [eptifibatide] ([Mpa][hArg]GDWPC-NH2; disulfide 1-7),collagen-induced platelet aggregation in PRP,"[1]; collagen 10 μg/mL, all eptifibatide concentrations tested",completely inhibited
same,occlusion time of whole blood,whole blood [4],16 min
same,occlusion time of PRP,platelet rich plasma [2]; 9 μM eptifibatide,over 30 minutes
same,time for bleeding time to return to normal after drug stoppage,platelet function,≤ 1 h
"CC(=O)Oc1ccccc1C(=O)O [aspirin, acetylsalicylic acid]",arachidonic acid induced platelet aggregation in PRP,"[1]; AA 500 ug/mL, aspirin 100-400 μM",eliminated arachidonic acid induced platelet aggregation entirely
same,collagen stimulated platelet aggregation in PRP,"[1]; collagen 10 ug/mL, aspirin 100-400 μM",partially inhibited
same,platelet binding and aggregation on collagen under shear,whole blood [5],largely limited
same,peak thrombin,thrombin generation,about 45 nM
same,occlusion time of PRP,platelet rich plasma [2]; PRP 30K/μL,> 30 min
same,occlusion of PRP taken from an aspirin patient,"platelet rich plasma [2]; ex vivo, subject on 81 mg/day of aspirin",failed to occlude
same,peak concentration,[6],44 µM
heparin,minimum Heparin dose needed to reach abnormal clot formation,pooled normal plasma,0.8 U/mL
CCCSc1nc(N[C@@H]2C[C@H]2c2ccc(F)c(F)c2)c2nnn([C@@H]3C[C@H](OCCO)[C@@H](O)[C@H]3O)c2n1 [ticagrelor],occlusion time of ADP stimulated PRP,platelet rich plasma [3],28.0 ± 3.0 min
same,time until platelet function can return after the last dosage,platelet function,approximately 72 hours

# From patent publication US12295972B2, “Methods using freeze-dried platelet derivative compositions for restoring hemostasis in a subject” (Cellphire, Inc., priority 2021, dated 2025)
